Literature values as cited in patent US9682051B2, “Acyclovir and meloxicam combination therapy for functional somatic syndromes” (INNOVATIVE MED CONCEPTS, LLC, priority 2012, dated 2017).

Test system: fibromyalgia patients
Details: valacyclovir alone

CC(C)[C@H](N)C(=O)OCCOCn1cnc2c(=O)[nH]c(N)nc21 [valacyclovir]
Outcome of treating fibromyalgia patients: not successful
